In series [1] the test system is peripheral blood lymphocytes. Kind of series: Reduction of number of peripheral blood lymphocytes in rat (Test Example 2). The class given is in vivo. Conditions: Lymphocyte, male Lewis rats, oral. Here is the method: Evaluation of Reduction of Number of Peripheral Blood Lymphocytes in Rat
The action on the peripheral blood lymphocytes were evaluated using rats. 6- to 10-week-old male Lewis rats (Japan Charles River Laboratories Japan, Inc.) were randomly divided into groups (n=3), and the compound of the present invention was suspended in 0.5% methyl cellulose-containing distilled water, and orally administered with a sonde. At 4 hours or 24 hours after administration, 0.2 ml of blood was collected from the ocular fundus under ether anesthesia. To the blood sample were immediately added EDTA.4K and heparin to prevent clotting, and the number of the lymphocytes in blood was measured with an automatic hematocyte analyzer (Sysmex Corp.; XT-2000i). For the reduction of the number of the lymphocytes in peripheral blood by the compound of the present invention, the percentage with the number of the lymphocytes in groups administered with 0.5% methyl cellulose-containing distilled water being set at 100%, as performed at the same time, were used, and the dose to cause 50% reduction of the number of the lymphocytes in the peripheral blood by administration of the compound of the present invention was defined as an ED50 value (mg/kg).

For series [2], the target named is T1, human S1P1 (Homo sapiens, UniProt P21453).
T1 construct: expressed in transfected cells; membrane fraction used
T1 sequence (P21453 whole entry): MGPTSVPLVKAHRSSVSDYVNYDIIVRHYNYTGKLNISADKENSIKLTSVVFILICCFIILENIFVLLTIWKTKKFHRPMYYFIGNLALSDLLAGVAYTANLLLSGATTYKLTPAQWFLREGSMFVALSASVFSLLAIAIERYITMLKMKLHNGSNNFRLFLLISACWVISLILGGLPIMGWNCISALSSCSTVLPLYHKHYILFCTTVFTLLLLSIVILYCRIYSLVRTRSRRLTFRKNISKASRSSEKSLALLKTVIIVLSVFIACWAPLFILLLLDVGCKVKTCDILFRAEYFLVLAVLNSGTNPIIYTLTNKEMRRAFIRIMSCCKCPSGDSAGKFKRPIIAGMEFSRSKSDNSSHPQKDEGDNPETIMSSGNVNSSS
Description: GTP[γ-35S] binding assay using membrane of human S1P1 expressing cell (Test Example 1, Method 1). Type of series: biochemical. The following applies: method 1, GTP[γ-35S] binding, membrane of human S1P1 expressing CHO cell (values without *); read-out: A: EC50, in vitro S1P1 agonist action. How it is done: (§1) Evaluation of In Vitro S1P1 Receptor Agonist Activity in Biological Body
(Method 1) Method for Evaluation on Receptor Agonist Action by GTP[γ-^35S] Binding Assay Using Membrane of Human S1P1 Expressing Cell
The in vitro S1P1 agonist action of the compound of the present invention was evaluated by the increase in the functional binding activity of GTP[γ-^35S] to G-protein using the membrane of a human S1P1 expressing cell. A cDNA encoding a human S1P1 was cloned from a human colorectal cDNA library and introduced to an expression vector pcDNA3.1 to construct a S1P1-pcDNA3.1. Then, by Lipofectamine 2000 (GIBCO), the S1P1-pcDNA3.1 was transfected into a CHO cell, and cultured in a Ham's F-12 culture medium containing 10% fetal bovine serum, 100 U/mL penicillin, 100 μg/mL streptomycin, and 1 mg/mL G418 disulfate, to obtain a stable, G418-resistant strain. The cultured human S1P1 expressing cells were isolated in a 1 mM EDTA.2Na-containing PBS, and disrupted under ice-cooling by a homogenizer made of glass in a 1 mM Tris HCl (pH 7.4) buffer solution containing 0.1 mM EDTA and a protein inhibitor. It was centrifuged at […], and a supernatant was further centrifuged at 4° C. for 60 min at 100,000×g, and suspended in a 10 mM Tris HCl (pH 7.4) buffer solution containing 1 mM EDTA to purify the membrane. The obtained membrane (0.13 mg/mL) and […] GTP[γ-^35S] […] The filter plate was dried at 50° C. for 60 min, and Microscinti-o (Packard) was added thereto for measurement by a liquids scintillation counter for a microplate (Packard, TOP count). For evaluation of the human S1P1 agonist action of the compound of the present invention and the comparative compound, the percentages with the rate of a maximum reaction to make the GTP[γ-^35S] bonds saturated in the presence of the compound being set at 100%, and the rate of the reaction of the GTP[γ-^35S] bonds in the absence of the compound being set at 0% were used, a non-linear regression curve was plotted, and a concentration to cause an agonist action operating 50% of the maximum reaction was defined as an EC50 value (nM).
On the technique in general: GTPγS is a poorly hydrolysed GTP analogue; its binding reports G protein activation.

Series [3] deals with T1, human S1P1. Kind of series: Ca2+ influx assay using human S1P1 expressing cell (Test Example 1, Method 2). The class given is cell-based. Conditions: method 2, Ca2+ influx, human S1P1 expressing CHO cell (values with *); read-out: A: EC50, in vitro S1P1 agonist action (value with *). Here is the method: as §1
(Method 2) Method for Evaluation of Receptor Agonist Action by Ca^2+ Influx Assay Using Human S1P1 Expressing Cell
The in vitro S1P1 agonist action of the compound of the present invention was evaluated by the increase in the Ca^2+ concentration in a human S1P1 expressing cell. A cDNA encoding a human S1P1 was cloned from a human colorectal cDNA library and introduced to an expression vector pcDNA3.1 to construct a S1P1-pcDNA3.1. Then, by Lipofectamine 2000 (GIBCO), the S1P1-pcDNA3.1 was transfected into a CHO cell, and cultured in a Ham's F-12 culture medium containing 10% fetal bovine serum, 100 U/mL penicillin, 100 μg/mL streptomycin, and 1 mg/mL G418 disulfate, to obtain a stable, G418-resistant strain. The cultured human S1P1 expressing cells were isolated in a 1 mM EDTA.2Na-containing PBS and suspended in a Ham's F-12 culture medium containing 10% fetal bovine serum, 100 U/mL penicillin, and 100 μg/mL streptomycin. This cell suspension was dispensed to a 96-well plate at 50000 cells/well, and cultured at a CO2 incubator (5% CO2, 37° C.) overnight. The culture medium was replaced with a calcium-sensitive fluorescent reagent (FLIPR (registered trademark) calcium 3 assay kit, molecular device)-containing loading buffer (Hank's balance salt solution, 20 mM HEPES, 2.5 mM probenecid) and left stand at a CO2 incubator (5% CO2, 37° C.) for 1 hour. The plate was set at a Functional Drug Screening System FDSS6000 (Hamamatsu Photonics K. K.), and persistently measured 124 times every 1.02 second at an excitation wavelength of 480 nm. The test compound (final concentration 10^−12 to 10^−5 M) was added at the same time as the 12th measurement, and the change in the Ca^2+ concentration in cells was evaluated by the change in the fluorescent strength. For evaluation of the human S1P1 agonist action of the compound of the present invention and the comparative compound, the percentages with the rate of a maximum reaction to make the increase in the Ca^2+ concentration in cells saturated after the addition of the compound being set at 100% and the rate of the increase in the Ca^2+ concentration in cells by the addition of a vehicle alone being set at 0% were used, a non-linear regression curve was plotted, and a concentration to cause an agonist action operating 50% of the maximum reaction was defined as an EC50 value (nM).

The nature of series [4]: Infrequent pulse expression using awake rats (Test Example 5). The class given is in vivo, rat. The following applies: awake male Lewis rats, intravenous infusion for 10 minutes, 1 mg/kg administration. How it is done:
Evaluation of Infrequent Pulse Expression Using Awake Rats Male Lewis rats were anesthetized with isoflurane inhalation and a polyethylene tube was intubated into the femoral artery and vein. It was connected to a blood pressure measuring amplifier•heart rate unit via a pressure transducer from an arterial line, and the arterial blood pressure and the heart rate were measured. Intravenous line from Vehicle (10% HCO40/tween80/PEG, 90% saline) and the present compounds were intravenously infused persistently at a rate of 1 mL/kg/min for 10 minutes. The measurement data were read (for a total evaluation time of 20 minutes) from a chart of the values before administration, at 1, 2, 5, and 10 min after the start of constant infusion, and at 1, 2, 5, and 10 min after the completion of infusion, and thus, for the heart rate and the blood pressure before administration, the decrease rates (%) before and after infusion were calculated.

Where [5] appears, read: 24 hours after administration, read-out: B: ED50 24 h, reduction of number of lymphocytes in peripheral blood.

Where two headings read alike, the source gives them in different places.

With `C[C@H](Oc1ccc(COc2cc(F)c3c(c2)OCC(CN2CCC=C(C(=O)O)C2)=C3)cc1C(F)(F)F)C(F)(F)F.Cl` [Ex 141], the ED50 (commonly the dose at which the effect has come halfway, by size or by number of responders) in series [1] (4 hours after administration, read-out: B: ED50 4 h, reduction of number of lymphocytes in peripheral blood) was found to be 0.099 mg/kg. For the same molecule, the half-maximal effective concentration (EC50) (as a rule, the concentration at which the effect is half-maximal) at human S1P1 [2] is 5.9 nM.
For `C[C@H](Oc1ccc(COc2ccc3c(c2)OCC(CN2CCC=C(C(=O)O)C2)=C3)cc1Cl)C(F)(F)F.Cl` [Ex 149], the ED50 in series [1] (setting [5]) is 0.12 mg/kg. Further, the half-maximal effective concentration (EC50) on human S1P1 [2] was 8.7 nM.
As to `CC(C)Oc1ccc(COc2ccc3c(c2)OCC(CN2CCC=C(C(=O)O)C2)=C3)cc1Cl.Cl` [Ex 151], the ED50 in series [1] (setting [5]) stood at 0.35 mg/kg. For the same molecule, on human S1P1 [3], the concentration for a half-maximal effect (EC50) was determined as 1.1 nM.
The matching figures for `CS(=O)(=O)NC(=O)[C@@H]1CCCN(CC2=Cc3c(F)cc(OCc4ccc(OC(CF)CF)c(C(F)(F)F)c4)cc3OC2)C1.Cl` [Ex 152]: 0.28 mg/kg and 6.3 nM.
On to `C[C@H](Oc1ccc(COc2ccc3c(c2)OCC(CN2CCC[C@@H](C(=O)O)C2)=C3)cc1C(F)(F)F)C(F)(F)F.Cl` [Ex 156, (3R)-1-[(7-{[3-(trifluoromethyl)-4-{[(2S)-1,1,1-trifluoropropan-2-yl]oxy}benzyl]oxy}-2H-chromen-3-yl)methyl]piperidine-3-carboxylic acid hydrochloride], for which, in series [1] (setting [5]), the 50% effective dose (ED50) turned out to be 0.086 mg/kg. In addition, the EC50 on human S1P1 [3] was determined as 16 nM.
With `Cl.O=C(O)[C@@H]1CCCN(CC2=Cc3ccc(OCc4ccc(OCC(F)(F)F)c(C(F)(F)F)c4)cc3OC2)C1` [Ex 160], the 50% effective dose (ED50) in series [1] (setting [5]) is 0.26 mg/kg. The half-maximal effective concentration (EC50) on human S1P1 [3] came out at 2.2 nM.
In the same order, the values of `Cl.O=C(O)C1CCN(CC2=Cc3ccc(OCc4ccc(OCC(F)(F)F)c(C(F)(F)F)c4)cc3OC2)CC1` [Ex 171] are 0.14 mg/kg and 9 nM.
Take `CC(C)Oc1ccc(COc2ccc3c(c2)OCC(CN2CCC=C(C(=O)O)C2)=C3)cc1C(F)(F)F.Cl` [Ex 178]: the 50% effective dose (ED50) in series [1] (setting [5]) worked out at 0.12 mg/kg. Besides, the EC50 on human S1P1 [2] was determined as 55 nM.
`Cl.O=C(O)C1=CCN(CC2=Cc3ccc(OCc4ccc(OC(CF)CF)c(Cl)c4)cc3OC2)CC1` [Ex 181]: in series [1] (setting [5]), the median effective dose (ED50) was 0.29 mg/kg. The concentration for a half-maximal effect (EC50) on human S1P1 [3] was 0.68 nM.
The matching figures for `C[C@H](Oc1ncc(COc2ccc3c(c2)OCC(CN2CCC=C(C(=O)O)C2)=C3)cc1Cl)C(F)(F)F.Cl` [Ex 183]: 0.21 mg/kg and 5.5 nM.
The matching figures for `Cl.O=C(O)[C@@H]1CCCN(CC2=Cc3c(F)cc(OCc4ccc(OC(CF)CF)c(C(F)(F)F)c4)cc3OC2)C1` [Ex 212]: 0.21 mg/kg and 1.1 nM.
The matching figures for `Cl.O=C(O)C1=CCCN(CC2=Cc3ccc(OCc4ccc(C5CCCC5)c(C(F)(F)F)c4)cc3OC2)C1` [Ex 216]: 0.25 mg/kg and 7.8 nM.
For `Cl.O=C(O)[C@@H]1CCCN(CC2=Cc3c(F)cc(OCc4ccc(OC(CF)CF)c(Cl)c4)cc3OC2)C1` [Ex 223], in series [1] (setting [5]), the median effective dose (ED50) is 0.32 mg/kg. Further, the EC50 on human S1P1 [3] was found to be 1.1 nM.
Take `Cl.O=C(O)[C@H]1CCCN(CC2=Cc3c(F)cc(OCc4ccc(OC(CF)CF)c(C(F)(F)F)c4)cc3OC2)C1` [Ex 230]: the 50% effective dose (ED50) in series [1] (setting [5]) amounted to 0.19 mg/kg. Besides, at human S1P1 [3], the EC50 was 7 nM. Also, in series [4], the “influence on the heart rate and the blood pressure” value is “does not have an influence”; the infrequent pulse expression result is on record as “not expressed”.
Consider `Cl.O=C(O)[C@H]1CCCN(CC2=Cc3c(F)cc(OCc4ccc(OCC(F)(F)F)c(C(F)(F)F)c4)cc3OC2)C1` [Ex 236], for which the 50% effective dose (ED50) in series [1] (setting [5]) amounted to 0.1 mg/kg. The EC50 on human S1P1 [3] came to 32 nM.

The values are drawn from patent publication US8193378B2, “2H-chromene compound and derivative thereof” (Astellas Pharma Inc., priority 2008, dated 2012).
